Laboratory results as given in US9056876B2, “Substituted 1H-pyrazolo[3′,4′,4,5]thieno[2,3-b]pyridin-3-amine analogs as positive allosteric modulators of the muscarinic acetylcholine receptor M4” (VANDERBILT UNIVERSITY, priority 2011, dated 2015).

Target: T1, mAChR M4 (UniProt P08173)
T1 construct: hM1 and hM4 cDNAs were purchased from Missouri S&T cDNA Resource
T1 sequence (P08173 1-479): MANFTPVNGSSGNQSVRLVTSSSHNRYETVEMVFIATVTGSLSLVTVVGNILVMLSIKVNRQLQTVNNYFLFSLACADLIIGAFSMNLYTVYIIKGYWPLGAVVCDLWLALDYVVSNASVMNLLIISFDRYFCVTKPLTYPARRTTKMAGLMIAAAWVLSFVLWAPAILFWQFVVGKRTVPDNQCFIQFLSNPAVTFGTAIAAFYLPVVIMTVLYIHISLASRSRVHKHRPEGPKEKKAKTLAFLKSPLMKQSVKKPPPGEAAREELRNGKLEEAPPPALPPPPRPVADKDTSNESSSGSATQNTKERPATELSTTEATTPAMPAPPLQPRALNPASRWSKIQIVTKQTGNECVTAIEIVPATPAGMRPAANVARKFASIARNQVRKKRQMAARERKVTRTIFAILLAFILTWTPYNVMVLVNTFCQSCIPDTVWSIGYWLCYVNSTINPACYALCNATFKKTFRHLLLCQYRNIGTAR
Assay: mAChR M4 cell-based functional assay (calcium mobilization, Fluo-4, FDSS)
Settings: for Emax (%)*: % ACh maximum at 30 μM; for pEC50: positive allosteric modulator activity, EC20 acetylcholine response; for pEC50 / EC50: CHO-K1 cells; for EC50: positive allosteric modulator activity: concentration-dependent increase in the EC20 acetylcholine response, >10 μM estimated for low potency (no plateau)
Summary of the method: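 CHO-K1 cells stably expressing hM4 or rM4 with chimeric Gqi5, loaded with Fluo-4 AM for 50 min at 37° C. Calcium read on FDSS 6000 over 300 s: compound added at 4 s, acetylcholine EC20 at 144 s and EC80 at 230 s. Agonist, PAM (EC20 increase) and antagonist (EC80 decrease) values fitted by four-parameter logistic.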

Structure (SMILES)	Emax (%)*	pEC50	EC50
CCNc1n[nH]c2c1sc1nc(C)cc(C)c12 [Compound 15, N-ethyl-6,8-dimethyl-1H-pyrazolo[3′,4′:4,5]thieno[2,3-b]pyridin-3-amine]	65%	5.68	2100 nM
Cc1cc(C)c2c(n1)sc1c(NCc3ccc4[nH]ccc4c3)nn(C)c12 [Compound 88, N-((1H-indo1-5-yl)methyl)-1,6,8-trimethyl-1H-pyrazolo[3′,4′:4,5]thieno[2,3-b]pyridin-3-amine]	67%	5.89	1300 nM
Cc1nc2sc3c(NCc4ccco4)nn(C)c3c2c(C)c1Cl [Compound 25, 7-chloro-N-(furan-2-ylmethyl)-1,6,8-trimethyl-1H-pyrazolo[3′,4′:4,5]thieno[2,3-b]pyridin-3-amine]	57%	6.66	220 nM
Cc1cc(C)c2c(n1)sc1c(NCc3ccccc3F)n[nH]c12 [Compound 9, N-(2-fluorobenzyl)-6,8-dimethyl-1H-pyrazolo[3′,4′:4,5]thieno[2,3-b]pyridin-3-amine]	43%	5.98	1050 nM
Cc1cc(C)c2c(n1)sc1c(NCc3cccc4c3OCO4)nn(C)c12 [Compound 84, N-(benzo[d][1,3]dioxol-4-ylmethyl)-1,6,8-trimethyl-1H-pyrazolo[3′,4′:4,5]thieno[2,3-b]pyridin-3-amine]	50%	6.72	190 nM
Cc1nc2sc3c(NCc4ccc(F)cc4)nn(C)c3c2c(C)c1Cl [Compound 22, 7-chloro-N-(4-fluorobenzyl)-1,6,8-trimethyl-1H-pyrazolo[3′,4′:4,5]thieno[2,3-b]pyridin-3-amine]	57%	<5.00	> 10000 nM
Cc1cc(C)c2c(n1)sc1c(NCC3CCN(C(=O)OC(C)(C)C)CC3)nn(C)c12 [Compound 122, tert-butyl 4-(((1,6,8-trimethyl-1H-pyrazolo[3′,4′:4,5]thieno[2,3-b]pyridin-3-yl)amino)methyl)piperidine-1-carboxylate]	27%	<5.00	> 10000 nM
Cc1cc(C)c2c(n1)sc1c(NCc3ccoc3)nn(C)c12 [Compound 81, N-(furan-3-ylmethyl)-1,6,8-trimethyl-1H-pyrazolo[3′,4′:4,5]thieno[2,3-b]pyridin-3-amine]	77%	7.16	69 nM
Cc1nc2sc3c(Nc4ccncc4)nn(C)c3c2c(C)c1Cl [Compound 148, 7-chloro-1,6,8-trimethyl-N-(pyridin-4-yl)-1H-pyrazolo[3′,4′:4,5]thieno[2,3-b]pyridin-3-amine]	–	<5.00	> 10000 nM
CC(=O)N1CCC(CNc2nn(C)c3c2sc2nc(C)cc(C)c23)CC1 [Compound 121, 1-(4-(((1,6,8-trimethyl-1H-pyrazolo[3′,4′:4,5]thieno[2,3-b]pyridin-3-yl)amino)methyl)piperidin-1-yl)ethanone]	41%	6.00	990 nM
Cc1ccc2c(n1)sc1c(NC(C)C)nn(C)c12 [Compound 70, N-isopropyl-1,6-dimethyl-1H-pyrazolo[3′,4′:4,5]thieno[2,3-b]pyridin-3-amine]	62%	<5.00	> 10000 nM
COc1cccc(C(=O)Nc2n[nH]c3c2sc2nc(C)cc(C)c23)c1 [Compound 127, N-(6,8-dimethyl-1H-pyrazolo[3′,4′:4,5]thieno[2,3-b]pyridin-3-yl)-3-methoxybenzamide]	–	<5.00	> 10000 nM
Cc1cc(C)c2c(n1)sc1c(NC3CCCCC3)nn(C)c12 [Compound 66, N-cyclohexyl-1,6,8-trimethyl-1H-pyrazolo[3′,4′:4,5]thieno[2,3-b]pyridin-3-amine]	73%	5.92	1200 nM
COCCn1nc(NCc2ccc(OC)cc2)c2sc3nc(C)cc(C)c3c21 [Compound 118, N-(4-methoxybenzyl)-1-(2-methoxyethyl)-6,8-dimethyl-1H-pyrazolo[3′,4′:4,5]thieno[2,3-b]pyridin-3-amine]	60%	<5.00	> 10000 nM
Cc1cc(C)c2c(n1)sc1c(NCc3nccs3)nn(C)c12 [Compound 100, 1,6,8-trimethyl-N-(thiazol-2-ylmethyl)-1H-pyrazolo[3′,4′:4,5]thieno[2,3-b]pyridin-3-amine]	47%	6.37	430 nM
Cc1ccnc(Nc2nn(C)c3c2sc2nc(C)c(Cl)c(C)c23)n1 [Compound 28, 7-chloro-1,6,8-trimethyl-N-(4-methylpyrimidin-2-yl)-1H-pyrazolo[3′,4′:4,5]thieno[2,3-b]pyridin-3-amine]	36%	<5.00	> 10000 nM
COc1ccc(Cn2nc(N(C)C)c3sc4nc(C)cc(C)c4c32)cc1 [Compound 155, 1-(4-methoxybenzyl)-N,N,6,8-tetramethyl-1H-pyrazolo[3′,4′:4,5]thieno[2,3-b]pyridin-3-amine]	–	<5.00	> 10000 nM
Cc1nc2sc3c(NCc4ccco4)n[nH]c3c2c(C)c1Cl [Compound 20, 7-chloro-N-(furan-2-ylmethyl)-6,8-dimethyl-1H-pyrazolo[3′,4′:4,5]thieno[2,3-b]pyridin-3-amine]	48%	5.85	1400 nM
Cc1cc(C)c2c(n1)sc1c(NC3CNC3)nn(C)c12 [Compound 102, N-(azetidin-3-yl)-1,6,8-trimethyl-1H-pyrazolo[3′,4′:4,5]thieno[2,3-b]pyridin-3-amine]	69%	5.96	1100 nM
Cc1csc(CNc2nn(C)c3c2sc2nc(C)cc(C)c23)n1 [Compound 98, 1,6,8-trimethyl-N-((4-methylthiazol-2-yl)methyl)-1H-pyrazolo[3′,4′:4,5]thieno[2,3-b]pyridin-3-amine]	53%	6.28	520 nM
COc1cc(OC)cc(C(C)Nc2nn(C)c3c2sc2nc(C)cc(C)c23)c1 (stereo not drawn) [Compound 48, N-(1-(3,5-dimethoxyphenyl)ethyl)-1,6,8-trimethyl-1H-pyrazolo[3′,4′:4,5]thieno[2,3-b]pyridin-3-amine]	38%	<5.00	> 10000 nM
Cc1ccnc2sc3c(NCC4CC4)nn(C)c3c12 [Compound 69, N-(cyclopropylmethyl)-1,8-dimethyl-1H-pyrazolo[3′,4′:4,5]thieno[2,3-b]pyridin-3-amine]	77%	5.89	1300 nM
Cc1cc(C)c2c(n1)sc1c(NCC3CCCN3C(=O)OC(C)(C)C)nn(C)c12 (stereo not drawn) [Compound 85, tert-butyl 2-(((1,6,8-trimethyl-1H-pyrazolo[3′,4′:4,5]thieno[2,3-b]pyridin-3-yl)amino)methyl)pyrrolidine-1-carboxylate]	37%	5.48	3300 nM
Cc1ccc2c(n1)sc1c(NCC3CC3)n[nH]c12 [Compound 43, N-(cyclopropylmethyl)-6-methyl-1H-pyrazolo[3′,4′:4,5]thieno[2,3-b]pyridin-3-amine]	64%	5.35	4500 nM
